Experimental data published in patent publication US20120100157A1, “Biomarker and Method for Predicting Sensitivity to MET Inhibitors” (Van Andel Research Institute, priority 2010, published 2012).

Key:
SF295 SQ1 = test: Serum HGF ELISA, SF295 SQ1 tumor-bearing mice; assay type: in vivo; details: end of efficacy study, mean ± SD
Protocol: (§1) At the end of the efficacy study, mouse serum was collected from each group and kept at −80° C. until use. For HGF expression level, 50 μl of serum was used for an ELISA test (R&D) according to the kit instructions. At least five samples were tested. Data represent mean±SD. Student's t test was used for statistical analysis.

U87M2 [1] = test: Serum HGF ELISA, U87M2 tumor-bearing mice; assay type: in vivo; details: end of efficacy study, mean ± SD
Protocol: as §1

U251M2 = test: In vivo SGX523 and erlotinib therapeutic efficacy study, U251M2 xenograft; design: species or system mice; details: for tumor sensitivity to single agent: either drug alone
Protocol: (§2) All animal studies were approved by the IACUC of the Van Andel Research Institute. Each GBM cell line (5×10^5 cells in 100 μl PBS) was inoculated into both SCID and SCIDhgf mice subcutaneously. For V13 tumor line, tumors were transplanted into SCIDhgf mice at the flank to initiate tumor growth. Tumor size was measured with a caliper twice a week. When average tumor size reached 100 mm^3, mice were grouped (n=10) for treatment as indicated. Dosing with SGX523 and/or erlotinib was delivered once daily by oral gavage for 3 weeks. Vehicles used were 0.5% MC 400 with 0.05% Tween 80 (SGX523) and 0.5% (w/v) methyl cellulose (erlotinib). Tumor size was measured by a caliper twice a week. Body weight was measured once a week. All mice were sacrificed 24 h after last dose. To determine the effectiveness of treatment, the average tumor size of each group from the last measurement was analyzed with Student's t test (α=0.05).

DBM2 = test: In vivo SGX523 and erlotinib therapeutic efficacy study, DBM2 xenograft; design: species or system mice
Protocol: as §2

U118 [2] = test: Serum HGF ELISA, U118 tumor-bearing mice; assay type: in vivo; details: end of efficacy study, mean ± SD
Protocol: as §1

V13 = test: In vivo efficacy study, V13 GBM patient-derived xenograft; design: species or system mice; details: for tumor response: V13 in SCIDhgf mice, Erlotinib at 75 mg/kg
Protocol: The V13 GBM xenograft tumor line was generated from the primary tumor of a GBM patient upon surgical removal. The fresh tumor specimen was split into two pieces, one to be divided and implanted into 5 nude mice to propagate tumor growth and another piece to be directly digested with 0.05% trypin into single cells and grown in Neuro-basal medium with 10% FBS supplemented with EGF (20 ng/ml), bFGF (20 ng/ml) and 1% penicillin and streptomycin at 37° C. The tumors growing from nude mice were analyzed using FISH to compare them with the original tumor and were further transplanted into the host nude mice to maintain tumor growth in vivo. All studies involving human subjects and human tissues were approved by IRB committee of Van Andel Research Institute.
as §2

X01-GB = test: In vivo efficacy study, X01-GB GBM stem cell tumors; design: species or system mice; details: for tumor response: X01-GB tumors, erlotinib at 75 mg/kg
Protocol: as §2

U87M2 [3] = test: In vivo SGX523 and erlotinib therapeutic efficacy study, U87M2 xenograft; design: species or system mice
Protocol: as §2

[4] = tested on: U251M2, T98G, and DBM2 cells; test: HGF- and EGF-induced uPA activity in GBM cells without autocrine HGF; assay type: cell-based, human; details: for cross inhibition between MET and EGFR pathways (uPA activity): early time point in vitro
Protocol: (§3) Cells were grown overnight in DMEM/10% FBS. Drugs were dissolved in DMSO and serially diluted from stock concentrations into DMEM/10% FBS medium and added to the appropriate wells. Immediately after drug or reagent addition, HGF/SF (60 ng/ml) was added to all wells (with the exception of wells used as controls to calculate basal growth and uPA-plasmin activity levels). Twenty-four hours after drug and HGF/SF addition, plates were processed for the determination of plasmin activity as described previously (22). Wells were washed twice with DMEM (without phenol red; Life Technologies, Inc.), and 200 μl of reaction buffer [50% (v/v) 0.05 units/ml plasminogen in DMEM (without phenol red), 40% (v/v) 50 mM Tris buffer (pH 8.2), and 10% (v/v) 3 mM Chromozyme PL (Boehringer Mannheim) in 100 mM glycine solution] was added to each well. The plates were then incubated at 37° C., 5% CO2, for 4 h, at which time the absorbance was read on an automated spectrophotometric plate reader at the single wavelength of 405 nm.

U87M2 cells [5] = test: uPA activity in HGF-autocrine U87M2 cells; assay type: cell-based, human; details: even when stimulated by EGF
Protocol: as §3

U118 [6] = test: In vivo SGX523 and erlotinib therapeutic efficacy study, U118 xenograft; design: species or system mice; details: U118 subcutaneous; P<0.05 at all three doses
Protocol: as §2

SF295SQ1 = test: In vivo SGX523 and erlotinib therapeutic efficacy study, SF295SQ1 xenograft; design: species or system mice; details: SF295SQ1 subcutaneous; P<0.05 at all three doses
Protocol: as §2

U87M2 cells [7] = test: HGF/EGF-induced downstream signaling, Western blot, U87M2; assay type: cell-based, human; details: 1-10 μM, regardless of additional HGF or EGF stimulation
Protocol: (§4) Cells were seeded in 10-cm dishes and grown until 80% confluent. After serum starvation overnight, cells were treated with or without SGX523 for 4 h with (or without) human HGF/SF or EGF (100 ng/ml) for 20 minutes at 37° C. The cells were washed twice with ice-cold 1×PBS, and whole cell lysates were prepared using RIPA buffer. The protein concentrations were determined by DC protein assay. Equal amounts of total protein (30 μg) from cell lysates were loaded on a 4-20% SDS-PAGE gel (invitrogen), transferred to a polyvinylidene difluoride (PVDF) membrane (Invitrogen), and detected using an ECL Western Blotting Detection System (GE Healthcare). Antibodies used were human Met (clone 25H2,), phospho-Met (Y1234/1235), human EGFR (clone D38B1), phosphor-EGFR(Y1068), AKT, phospho-AKT (S473), p42/44 MAPK, phospho-p42/44 MAPK (T202/Y204) (all from Cell Signaling Technology); β-actin (clone AC-15, Abcam); and anti-HGFantibody (Clone 7-2, provided by Dr. Brian Cao at Van Andel Research Institute). Secondary antibodies used were goat anti-rabbit IgG-HRP and goat anti-mouse IgG-HRP (Santa Cruz Biotechnology).

DBM2 cells = test: HGF/EGF-induced downstream signaling, Western blot, DBM2; assay type: cell-based, human
Protocol: as §4

GBM = details: phase II clinical trials; cited from earlier work
recurrent GBM = details: clinical trials against recurrent GBM; cited from earlier work

Row | Compound | Serum HGF concentration (SF295 SQ1; SF295 SQ1, SCID mice) | Serum HGF concentration (SF295 SQ1; SF295 SQ1, SCIDhgf mice) [pg/mL] | Serum HGF concentration (U87M2 [1]; U87M2, SCID mice) | Serum HGF concentration (U87M2 [1]; U87M2, SCIDhgf mice) [pg/mL] | tumor sensitivity to single agent (U251M2) | Serum HGF concentration (U118 [2]; U118, SCID mice) | Serum HGF concentration (U118 [2]; U118, SCIDhgf mice) [pg/mL] | tumor response (V13) | tumor response (X01-GB) | cross inhibition between MET and EGFR pathways (uPA activity) [4] | other results
1 | C#Cc1cccc(Nc2ncnc3cc(OCCOC)c(OCCOC)cc23)c1 [Erlotinib, erlotinib] | 858 ± 670 ^ pg/ml | 4000 ± 1132 | 1277 ± 679 pg/mL | 8233 ± 3311 | tolerate | 348.7 ± 172^ pg/ml | 2940 ± 746 | induced tumor regression | very sensitive | no evidence of cross inhibition | tumor sensitivity to single agent (DBM2): somewhat sensitive; p-EGFR expression in tumor lysates (V13; V13, Western blot with tumor lysates): significantly reduced; p-EGFR in tumor lysates (X01-GB; X01-GB, Western blot with tumor lysates): significantly reduced; prolonged inhibition of U87M2 tumor growth (U87M2 [3]; FIG. 7: SGX523 90 or 120 mg/kg, erlotinib 150 mg/kg, p<0.05 for combination): failed; inhibition of EGF-induced uPA activity ([4]; within 24 hrs, U251M2, T98G, DBM2 cells): specifically blocked
2 | Cn1cc(-c2ccc3nnc(Sc4ccc5ncccc5c4)n3n2)cn1 [SGX523] | 262 ± 138 ^4 pg/ml | 4214 ± 1084 | 152 ± 85 ^4 pg/ml | 6330 ± 2240 | tolerate | 91 ± 85 ^5, 6 pg/ml | 4149 ± 1264 | no response | do not respond | no evidence of cross inhibition | inhibition of basal level of uPA activity (U87M2 cells [5]): did inhibit the basal level of uPA activity; xenograft tumor sensitivity (U118 [6]): sensitive to SGX523 in a dose-dependent manner; xenograft tumor sensitivity (SF295SQ1): sensitive to SGX523 in a dose-dependent manner; tumor growth response at increased dose (U251M2; 120 mg/kg): did not improve the responsive; tumor growth response (U251M2; SGX523 60 mg/kg): no response; tumor growth response (DBM2; SGX523 60 mg/kg): no response; inhibition of p-Met and downstream MAPK and AKT pathways (U87M2 cells [7]): can inhibit p-Met and downstream MAPK and AKT pathways; tumor regrowth under continuous dosing (U87M2 [3]; U87M2, continuous dosing with SGX523): start to grow back after 2 weeks; tumor regression (U87M2 [3]; U87M2, first week after treatment started): induces U87M2 tumor regression; xenograft tumor sensitivity (U87M2 [3]; U87M2 subcutaneous, P<0.05 at all three doses): sensitive to SGX523 in a dose-dependent manner; inhibition of HGF-induced uPA activity ([4]; SGX523 at 0.1 μM after 24 h, U251M2, T98G, DBM2 cells): inhibited HGF-induced uPA activity; inhibition of EGF induced p-EGFR (DBM2 cells): did not inhibit
3 | COc1cc2nccc(Oc3ccc(NC(=O)C4(C(=O)Nc5ccc(F)cc5)CC4)cc3)c2cc1OC [XL184] |  |  |  |  |  |  |  |  |  |  | clinical efficacy (GBM): promising efficacy
4 | AMG102: a neutralizing antibody against HGF |  |  |  |  |  |  |  |  |  |  | clinical outcome (recurrent GBM): failed in clinical trials
